Patent US10576097B2, “URLC10-derived peptide and vaccine containing same” (ONCOTHERAPY SCIENCE, INC., priority 2014, dated 2020)

How the values were obtained:
Format in all cases: cell-based, human
peptide-pulsed C1R-A03 = assay: In vitro CTL induction, IFN-gamma ELISPOT assay (HLA-A*0301); conditions: CTLs induced from HLA-A*0301-positive donors, against peptide-pulsed C1R-A03, compared with control
Description: (§1) Monocyte-derived dendritic cells (DCs) were used as the antigen-presenting cell to induce a cytotoxic T lymphocyte (CTL) response against peptides presented on human leukocyte antigens (HLAs). As described in the other sections, DCs were generated in vitro (Nakahara S et al., Cancer Res 2003, 63(14): 4112-8). Specifically, peripheral-blood mononuclear cells isolated from healthy volunteers (HLA-A*0301-positive) with the Ficoll-Paque plus solution (Pharmacia) were separated by attaching to plastic tissue culture dishes (Becton Dickinson) and concentrated as a monocyte fraction. The monocyte-concentrated population was cultured in the presence of 1000 IU/ml granulocyte macrophage colony-stimulating factor (R&D System) and 1000 IU/ml interleukin(IL)-4 (R&D System) in an AIM-V medium (Invitrogen) containing 2% heat-inactivated autologous serum (AS). After seven days of culturing, the cytokine-induced DCs were pulsed with 20 micro-g/ml each of the synthesized peptides in an AIM-V medium at 37 degrees C. for three hours in the presence of 3 micro-g/ml beta 2-microglobulin. The generated cells appeared to express on their cell surface DC-associated molecules such as CD80, CD83, CD86 and HLA class II (data not shown). Next, these peptide-pulsed DCs were inactivated by X-ray irradiation (20 Gy), and mixed in a 1:20 ratio with autologous CD8^+ T cells obtained by positive selection using the CD8 Positive Isolation Kit (Dynal). These culture products were seeded in a 48-well plate (Corning). Each well was made to contain 1.5×10^4 peptide-pulsed DCs, 3×10^5 CD8^+ T cells and 10 ng/ml IL-7 (R&D System) in 0.5 ml of the AIM-V/2% AS medium. Three days later, these culture products were added with a final concentration of 20 IU/ml IL-2 (CHIRON). On day 7 and day 14, T cells were further stimulated with peptide-pulsed autologous DCs. The DCs were prepared every time by the same method as above. On day 21, after the third peptide stimulation, CTLs were examined against the peptide-pulsed C1R-A03 by a human interferon (IFN)-gamma enzyme-linked immunospot (ELISPOT) assay (Tanaka H et al., Br J Cancer 2001, 84(1): 94-9; Umano Y et al., Br J Cancer 2001, 84(8): 1052-7; Uchida N et al., Clin Cancer Res 2004, 10(24): 8577-86; Suda T et al., Cancer Sci 2006, 97(5): 411-9; Watanabe T et al., Cancer Sci 2005, 96(8): 498-506).
(§2) To examine specific CTL activity, an IFN-gamma ELISPOT assay and an IFN-gamma enzyme-linked immunosorbent assay (ELISA) were performed. Specifically, peptide-pulsed C1R-A03 (1×10^4 cells/well) was prepared as the stimulator cell. The induced CTLs, i.e., CTL lines and CTL clones, were used as the responder cell. The IFN-gamma ELISPOT assay and IFN-gamma ELISA were performed according to the manufacturer's manual.

peptide-pulsed C1R-A11 = assay: In vitro CTL induction, IFN-gamma ELISPOT assay (HLA-A*1101); conditions: CTLs induced from HLA-A*1101-positive donors, against peptide-pulsed C1R-A11, compared with control
Description: as §1, with “(HLA-A*1101-positive)” for “(HLA-A*0301-positive)”, “C1R-A11” for “C1R-A03”
as §2, with “C1R-A11” for “C1R-A03”

[1] = system: C1R-A03 cells pulsed with the respective peptide; assay: IFN-gamma ELISA of CTL lines and CTL clones (HLA-A*0301)
Method: CTLs were propagated in culture using methods similar to those disclosed by Riddell et al. (Walter E A et al., N Engl J Med 1995, 333(16): 1038-44; Riddell S R et al., Nat Med 1996, 2(2): 216-23). The CTLs were co-cultured in a total of 25 ml AIM-V medium containing 5% AS (AIM-V/5% AS) and 40 ng/ml anti-CD3 antibody with two types of Mitomycin C-treated human B lymphoblastoid cell lines at 5×10^6 cells/flask. One day after beginning of the culturing, 120 IU/ml IL-2 was added to the culture. On days 5, 8 and 11, a fresh AIM-V/5% AS medium containing 30 IU/ml IL-2 was added to the culture (Tanaka H et al., Br J Cancer 2001, 84(1): 94-9; Umano Y et al., Br J Cancer 2001, 84(8): 1052-7; Uchida N et al., Clin Cancer Res 2004, 10(24): 8577-86; Suda T et al., Cancer Sci 2006, 97(5): 411-9; Watanabe T et al., Cancer Sci 2005, 96(8): 498-506).
Dilution of CTLs was carried out to make 1 and 10 cells/well in 96 round-bottomed microtiter plates (Nalge Nunc International). The CTLs were co-cultured with two types of Mitomycin C-treated human B lymphoblastoid cell lines at 1×10^4 cells/well in a total of 150 micro-l/well 5% AS-containing AIM-V (AIM-V/5% AS) medium with 30 ng/ml anti-CD3 antibody and 125 IU/ml IL-2. Ten days later, IL-2 was added to the medium at 50 micro-l/well to reach a final concentration of 125 IU/ml. On day 14, the CTL activity was tested, and the CTL clones were propagated using the same method as described above (Uchida N et al., Clin Cancer Res 2004, 10(24): 8577-86; Suda T et al., Cancer Sci 2006, 97(5): 411-9; Watanabe T et al., Cancer Sci 2005, 96(8): 498-506).
as §2

Row | Sequence | peptide-specific CTL activity (IFN-gamma production) (peptide-pulsed C1R-A03) | also measured
1 | ALLLVVALPR (a peptide derived from URLC10) [SEQ ID NO 12, URLC10-derived 10mer peptide, start position 63] | potent IFN-gamma production | peptide-specific CTL activity (IFN-gamma production) (peptide-pulsed C1R-A11): specific IFN-gamma production was not observed
2 | AMERPKPEEK (a peptide derived from URLC10) [SEQ ID NO 16, URLC10-derived 10mer peptide, start position 149] | potent IFN-gamma production | –
3 | CSAGCAAMER (a peptide derived from URLC10) [SEQ ID NO 15, URLC10-derived 10mer peptide, start position 143] | potent IFN-gamma production | –
4 | GLWLAILLLL (a peptide derived from URLC10) [SEQ ID NO 27, URLC10-derived 10mer peptide, start position 204] | potent IFN-gamma production | –
5 | GPPINSSVFK (a peptide derived from URLC10) [SEQ ID NO 17, URLC10-derived 10mer peptide, start position 183] | potent IFN-gamma production | –
6 | IAAVKIFPR (a peptide derived from URLC10) [SEQ ID NO 3, URLC10-derived 9mer peptide, start position 127] | potent IFN-gamma production | –
7 | ILLLLASIAA (a peptide derived from URLC10) [SEQ ID NO 30, URLC10-derived 10mer peptide, start position 209] | potent IFN-gamma production | –
8 | KIFPRFFMV (a peptide derived from URLC10) [SEQ ID NO 6, URLC10-derived 9mer peptide, start position 131] | potent IFN-gamma production | –
9 | LLEEPMPFFY (a peptide derived from URLC10) [SEQ ID NO 18, URLC10-derived 10mer peptide, start position 161] | potent IFN-gamma production | –
10 | LLLVVALPR (a peptide derived from URLC10) [SEQ ID NO 5, URLC10-derived 9mer peptide, start position 64] | potent IFN-gamma production | –
11 | MPFFYLKCCK (a peptide derived from URLC10) [SEQ ID NO 22, URLC10-derived 10mer peptide, start position 166] | potent IFN-gamma production | IFN-gamma production of CTL clone ([1]; CTL clone by limiting dilution, against peptide-pulsed C1R-A03 cells): Potent IFN-gamma production; IFN-gamma production of CTL line ([1]; CTL line against peptide-pulsed versus non-pulsed target cells): potent IFN-gamma production
12 | RGGRGSPYR (a peptide derived from URLC10) [SEQ ID NO 9, URLC10-derived 9mer peptide, start position 18] | – | peptide-specific CTL activity (IFN-gamma production) (peptide-pulsed C1R-A11): potent IFN-gamma production
13 | RQAPAGGRR (a peptide derived from URLC10) [SEQ ID NO 8, URLC10-derived 9mer peptide, start position 7] | specific IFN-gamma production was not observed | –
14 | RVWCHVCER (a peptide derived from URLC10) [SEQ ID NO 1, URLC10-derived 9mer peptide, start position 98] | potent IFN-gamma production | peptide-specific CTL activity (IFN-gamma production) (peptide-pulsed C1R-A11): potent IFN-gamma production
15 | VIAAVKIFPR (a peptide derived from URLC10) [SEQ ID NO 14, URLC10-derived 10mer peptide, start position 126] | potent IFN-gamma production | –
